Where two headings read alike, the source gives them in different places.
What was measured:
[1] = In vitro plasma stability assay (modified, GnHCl before TCA precipitation); type: in vitro ADME; conditions: human plasma; for half-life: 1st order decay fit
Experimental: The plasma-stability of 1, 4, 7 and 13 was evaluated in a modified version of an in vitro plasma stability assay (Bach et al, Angew. Chem, Int. Ed, 2009, 48, 9685-9689). In the original procedure, the investigated compound was incubated in human plasma. Samples were then taken out at appropriate timepoints and the serum proteins were removed by precipitation with trichloroacetic acid (TCA) followed by analysis of the supernatants by RP-HPLC. The obtained peak areas were normalized to the amount at T0 and fitted to a 1st order decay model to calculate the half-life. When this method was applied to the FA-linked dimeric ligands, sample recoveries were low (<5%). This was caused by the removal of the FA-linked dimeric ligands as HSA-bound complexes during the TCA precipitation. Therefore dissolution of the sample in solid guanidine hydrochloride (GnHCI) to a final concentration of 6M was performed prior to the TCA precipitation. The purpose of this was to unfold the HSA in the sample, releasing the FA-linked dimeric ligand.

HSA = target: T1, HSA (Homo sapiens, UniProt P02768); experiment: Transil XL HSA binding assay (immobilized HSA, unbound compound quantified by RP-HPLC)
T1 construct: purchased Sovicell GMBH, Leipzig, Germany
Experimental: The synthesized FA-linked dimeric ligands (1-12) were evaluated for their HSA affinity using a Transil^XL HSA binding assay kit (Sovicell GMBH, Leipzig, Germany). […] The assay kit consisted of prefilled wells with increasing concentrations of immobilized HSA as well as two control wells without HSA. The HSA had been immobilized in a random fashion to ensure that all binding sites on HSA were available. To conduct the assay, the wells were incubated with a known concentration of the tested compounds, and the unbound amount of compound was quantified using analytical RP-HPLC (C8 column). The fraction of unbound drug (fu) for each data point was calculated from the RP-HPLC data by comparison to a control sample without HSA. […] In eq. 1, it is assumed that the concentration of drug-bound HSA ([HSA-D]) is much lower than the total concentration of HSA in the well ([HSA-D]<<cHSA). The assay kit has been designed such that the assumption is valid for compounds where fu>1%. The calculated KD-values were used to calculate fb at physiological concentration of HSA (588 μM) using equation 2.

[2] = In vivo pharmacokinetics, blood concentration by LC-MS/MS after single s.c. bolus injection; parameters: species or system male Wistar rats; conditions: sc, rat
Source text: To determine the pharmacokinetic properties of FA-linked compounds we measured the concentration of selected compounds in blood by LC-MS/MS following a single subcutaneous (s.c.) bolus injection in male Wistar rats (FIG. 5). From this, it was apparent that all FA-linked dimeric ligands have longer T1/2 and greater Tmax than dimeric ligand without FA (UCCB01-125) (Table 4 and FIG. 5). […] The increased Tmax is explained by a prolonged absorption from the injection site. Overall, these properties enable administration by s.c.depot injections and thereby slow and consistent release of compound into the blood, whereby fewer administrations are needed to maintain pharmaceutical relevant blood concentrations.

PSD-95 PDZ1-2 = PSD-95 PDZ1-2 (Homo sapiens, UniProt P78352); experiment: In vitro fluorescence polarization (FP) competition binding assay, in TBS and modified with 1% HSA
Experimental: Affinity to PSD-95 was measured using an in vitro fluorescence polarization (FP) assay as described by Bach et al (PNAS USA, 2012, 109, 3317-3322). First, a saturation binding curve was obtained to determine KD values for the interaction between a dimeric fluorescent probe and PSD-95 PDZ1-2. Increasing concentrations of PDZ1-2 were added to a constant concentration (0.5 nM) of the probe. The fluorescence polarization of the samples was measured at excitation/emission wavelengths of 635/670 nm and the FP values were fitted to a one site binding model using the program GraphPad Prism. […] The FP values were fitted to a one site competition (variable slope) model in GraphPad Prism. The resulting IC50 were converted to competition inhibition constants, Ki values, as described (Nikolovska-Coleska et al, Anal Biochem, 2004, 332, 261-273). The modified FP assay was conducted as described above with 1% HSA in the assay. The synthesized FA-linked dimeric ligands were evaluated for their affinity to PSD-95 PDZ1-2 in the FP assay. […] We first measured the affinities using a simple tris-buffered saline (TBS) buffer (Table 2, FIG. 3A); but furthermore, we investigated if HSA influenced the ability of the FA-linked dimers to bind PSD95 PDZ1-2 by conducting the FP assay with HSA present in the assay buffer (Table 2, FIG. 3B). […] For a traditional small-molecule drug, it is commonly accepted that the unbound fraction of the drug is free to diffuse across membranes and exerts the physiological effect by interacting with its target (Berezhkovskiy et al, J Pharm Sci 2007, 96, 249-257). I.e. if the drug is bound to another molecule, then it cannot interact with the target at the same time.

[3] = dose 15 mg/kg, mean ± SEM, n = 3
[4] = FP data (TBS+HSA) corrected for calculated fu, read-out: Ki(PSD95), free ligand
[5] = FP in TBS with 1% HSA (~150 μM), mean ± SEM, n ≧ 3, read-out: Ki(PSD95) + HSA
[6] = FP in TBS, mean ± SEM, n ≧ 3, read-out: Ki(PSD95)
[7] = dose 10 mg/kg, mean ± SEM, n = 3
[8] = dose 3 mg/kg, mean ± SEM, n = 3
[9] = dose 30 mg/kg, mean ± SEM, n = 3

T1 sequence (P02768 25-609): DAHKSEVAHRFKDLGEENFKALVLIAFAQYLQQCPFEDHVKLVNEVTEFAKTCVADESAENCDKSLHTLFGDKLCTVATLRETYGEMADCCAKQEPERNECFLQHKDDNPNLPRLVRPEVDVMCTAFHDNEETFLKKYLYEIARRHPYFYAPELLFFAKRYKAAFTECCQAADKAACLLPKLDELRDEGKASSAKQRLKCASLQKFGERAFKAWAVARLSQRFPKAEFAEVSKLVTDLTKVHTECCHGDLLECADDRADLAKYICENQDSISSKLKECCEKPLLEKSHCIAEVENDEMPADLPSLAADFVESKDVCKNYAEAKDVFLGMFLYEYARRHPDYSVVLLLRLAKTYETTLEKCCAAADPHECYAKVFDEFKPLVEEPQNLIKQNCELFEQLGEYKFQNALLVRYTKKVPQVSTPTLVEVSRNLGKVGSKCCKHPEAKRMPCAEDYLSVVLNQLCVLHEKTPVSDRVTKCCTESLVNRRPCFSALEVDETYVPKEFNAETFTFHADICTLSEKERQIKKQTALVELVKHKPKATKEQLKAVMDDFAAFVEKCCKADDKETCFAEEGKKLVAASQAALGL
Sequence of PSD-95 PDZ1-2 (P78352 61-249 limits assumed): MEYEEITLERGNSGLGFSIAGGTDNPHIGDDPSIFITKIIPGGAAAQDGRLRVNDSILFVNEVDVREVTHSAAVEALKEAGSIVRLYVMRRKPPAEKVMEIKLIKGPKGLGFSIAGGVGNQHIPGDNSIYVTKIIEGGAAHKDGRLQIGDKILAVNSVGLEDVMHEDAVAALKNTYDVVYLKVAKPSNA

| Structure (SMILES) | In vitro plasma stability [1] | half-life [1] [min] | fraction unbound (HSA) | Tmax [2, 3] [h] | half-life [2, 3] [min] | Kd (HSA) [µM] | half-life ([2]; single s.c. bolus injection) [min] | Ki (PSD-95 PDZ1-2; [4]) [nM] | Ki (PSD-95 PDZ1-2; [5]) [nM] | Ki (PSD-95 PDZ1-2; [6]) [nM] | Tmax [2, 7] [h] | half-life [2, 7] [min] | Tmax [2, 8] [h] | half-life [2, 8] [min] | Tmax [2, 9] [h] | half-life [2, 9] [min] |
| --- | --- | --- | --- | --- | --- | --- | --- | --- | --- | --- | --- | --- | --- | --- | --- | --- |
| CCCCCCCCCCCC(=O)NCCCC(=O)N(CCOCCOCCC(=O)N[C@H](C(=O)N[C@@H](CCC(=O)O)C(=O)N[C@H](C(=O)N[C@@H](C)C(=O)N[C@H](C(=O)O)C(C)C)[C@@H](C)O)[C@@H](C)CC)CCOCCOCCC(=O)N[C@H](C(=O)N[C@@H](CCC(=O)O)C(=O)N[C@H](C(=O)N[C@@H](C)C(=O)N[C@H](C(=O)O)C(C)C)[C@@H](C)O)[C@@H](C)CC [Compound 1] | degraded faster | 1420 | 0.151 | 0.833 ± 0.167 | 46.1 ± 2.7 | – | – | – | – | – | – | – | – | – | – | – |
| CC[C@H](C)[C@H](NC(=O)CCOCCOCCN(CCOCCOCCC(=O)N[C@H](C(=O)N[C@@H](CCC(=O)O)C(=O)N[C@H](C(=O)N[C@@H](C)C(=O)N[C@H](C(=O)O)C(C)C)[C@@H](C)O)[C@@H](C)CC)C(=O)CCCNC(=O)CCCCCCCCCCCCCCCCC(=O)O)C(=O)N[C@@H](CCC(=O)O)C(=O)N[C@H](C(=O)N[C@@H](C)C(=O)N[C@H](C(=O)O)C(C)C)[C@@H](C)O [Compound 4] | highly stable | > 1440 | 0.115 | 4.67 ± 0.66 | 488 ± 30 | 19.4 ± 3.6 | > 480 | 654 ± 34 | 5720 ± 298 | 11.4 ± 0.6 | – | – | – | – | – | – |
| CCCCCCCCCCCCCCCCCC(=O)N[C@@H](CCC(=O)N(CCOCCOCCC(=O)N[C@H](C(=O)N[C@@H](CCC(=O)O)C(=O)N[C@H](C(=O)N[C@@H](C)C(=O)N[C@H](C(=O)O)C(C)C)[C@@H](C)O)[C@@H](C)CC)CCOCCOCCC(=O)N[C@H](C(=O)N[C@@H](CCC(=O)O)C(=O)N[C@H](C(=O)N[C@@H](C)C(=O)N[C@H](C(=O)O)C(C)C)[C@@H](C)O)[C@@H](C)CC)C(=O)O [Compound 7] | highly stable | > 1440 | 0.043 | – | – | 6.8 ± 1.2 | > 480 | 59.1 | 1390 ± 184 | 17 | 6 ± 1.15 | 642 ± 34.8 | – | – | – | – |
| CCCCCCCCCCCCCCCCCC(=O)NCCCC(=O)N(CCOCCOCCC(=O)N[C@H](C(=O)N[C@@H](CCC(=O)O)C(=O)N[C@H](C(=O)N[C@@H](CC(=O)O)C(=O)N[C@H](C(=O)O)C(C)C)[C@@H](C)O)[C@@H](C)CC)CCOCCOCCC(=O)N[C@H](C(=O)N[C@@H](CCC(=O)O)C(=O)N[C@H](C(=O)N[C@@H](CC(=O)O)C(=O)N[C@H](C(=O)O)C(C)C)[C@@H](C)O)[C@@H](C)CC [Compound 13] | highly stable | > 1440 | 0.356 | – | – | 83 | > 480 | – | – | – | 8 | 978 ± 169 | – | – | – | – |
| CC[C@H](C)[C@H](NC(=O)CCOCCOCCOCCOCCOCCC(=O)N[C@H](C(=O)N[C@@H](CCC(=O)O)C(=O)N[C@H](C(=O)N[C@@H](C)C(=O)N[C@H](C(=O)O)C(C)C)[C@@H](C)O)[C@@H](C)CC)C(=O)N[C@@H](CCC(=O)O)C(=O)N[C@H](C(=O)N[C@@H](C)C(=O)N[C@H](C(=O)O)C(C)C)[C@@H](C)O [UCCB01-125, reference compound] | – | 102 | 0.507 | – | – | 154 | – | – | – | – | – | – | 0.5 | 33.7 ± 6.06 | 0.5 | 27 ± 4.08 |

Source: patent publication US20160303245A1, “FATTY ACID DERIVATIVES OF DIMERIC INHIBITORS OF PSD-95” (UNIVERSITY OF COPENHAGEN, priority 2013, published 2016)
